Numbers after ± are expanded uncertainties.
Assay: molar enthalpy of transition or fusion
Settings: 352 K; Crystal; DSC

OCCCCCCCCCCCCO [1,12-dihydroxydodecane]
molar enthalpy of transition or fusion: 12.2 ± 0.454 kcal/mol

— the NIST ThermoML archive (doi:10.1021/je060333x)
